≈ marks a conversion by molar mass, not a printed value.
Tests used:
[1] = Human protein plasma binding; format: in vitro ADME; details: read-out: hPPB (human protein plasma binding) (converted)
Experimental: Certain pharmacokinetic attributes were evaluated for sulfonyl pyridyl compounds of the present disclosure. The results are shown in Table 3 below where: “hTRPA1” refers to IC50 in nM; “hPPB” refers to human protein plasma binding in percent; “Corrected IC50” refers to the hTRPA1 values corrected for hPPB; “HLM-CLhep” refers to human liver microsome clearance in mL/min/kg; “K.Sol” refers to estimated aqueous solubility in μM; and “NR” refers to not run.
Human protein plasma binding may be measured according to the methods described by Banker et al., “Plasma/Serum Protein Binding Determinations,” Current Drug Metabolism (2008), 9, 854-859, and Kariv et al., “Development of a high throughput equilibrium dialysis method,” J. Pharm Sci. (2001) May; 90(5):580-87, as well as using commercially available assay kits by Wyatt, Cerep, Cyprotex and others.

[2] = Aqueous solubility (K. Sol); format: physicochemical; details: aqueous medium (not further specified), kinetic from dmso stock; read-out: K. Sol (estimated aqueous solubility)
Text: Aqueous solubility may be determined using the procedures reported by Alsenz et al., “High throughput solubility measurement in drug discovery and development,” Advanced Drug Delivery Reviews (2007) 59, 546-568 and Kibbey et al., “An Integrated Process for Measuring the Physicochemical Properties of Drug Candidates in a Preclinical Discovery Environment,” J. Pharmaceutical Sci. (2001) 90(8), 1164-1175.

[3] = Human liver microsome clearance / stability; format: in vitro ADME; details: human liver microsomes
Text: Human liver microsome clearance (mL/min/kg) may be measured according to the method described by Ackley et al, “Metabolic Stability Assessed by Liver Microsomes and Hepatocytes”, in “Optimization in Drug Discovery” in the “Methods in Pharmacology and Toxicology” series (ISSN 1557-2153), pp. 151-162 (Yan, Ed., Print ISBN 978-1-58829-332-9, Springer (2004), as well as by using commercially available assay kits by Cerep, Cyprotex, Bd Bioscience and others.
Human liver microsome HLM stability may be measured as using the procedure of Ackley et al. as described above.

human TRPA1 [4] = biological target: T1, human TRPA1 (Homo sapiens, UniProt O75762); assay: FLIPR Tetra calcium influx assay, CHO cells expressing TRPA1, cinnamaldehyde agonist (hTRPA1 CHO Ca2+ AUC EVO); format: cell-based
T1 construct: expressed in transfected cells; host or cells: CHO cells
Experimental: The IC50 ([…]) of compounds on the human and rat TRPA1 channels were determined using a FLIPR Tetra instrument. CHO cells expressing TRPA1 were plated into 384-well plates, incubated overnight at 37° C., and loaded with BD calcium indicator dye for 1 hr at 37° C. followed by 15 minutes at room temperature. The assay buffer was Hank's Balanced Salt Solution (HBSS) containing 20 mM HEPES (pH readjusted to 7.4) along with 0.02% BSA.
Following dye load and plate cool down, compounds were added to the cells using FLIPR Tetra. Plates were then incubated with compounds for 20 minutes at room temperature prior to adding agonist. Following this incubation, about an EC80 concentration of cinnamaldehyde (75 uM for human TRPA1 and 45 uM for rat TRPA1) was added to active the channels and block of cinnamaldehyde induced calcium influx was measured.
The IC50 results were fit with a standard Hill function, keeping the Hill coefficient (n) fixed to 1.5. Fixing the Hill coefficient will generally reduce variability of the IC50 determination. The IC50 results were individually examined to make sure the MIN and MAX points were set correctly prior to validation of the results.

[5] = GSH (glutathione) trapping of reactive metabolites; format: in vitro ADME; details: in vitro incubation with glutathione as trapping reagent
Experimental: GSH trapping in a method for screening reactive metabolites for the potential to cause adverse drug reactions. Reactive metabolites may implicate clinical toxicity through drug compound bioactivation or inactivation of proteins. One such assessment utilizes in vitro incubations comprising glutathione (GSH) as a trapping reagent. LC/MS may be used to detect and characterize reactive intermediate formation as indicated by trapped glutathione adducts, as described by Yan et al., “Stable Isotope Trapping and High Throughput Screenings of Reactive Metabolites Using the Active MS Signature,” Anal. Chem. (2004), 76, 6835-6847.

human TRPA1 [6] = biological target: T1, human TRPA1; assay: Human Ca2+ MAX IC50 calcium assay; format: cell-based; details: Table 5; read-out: H Ca2+ MAX (human CA2+ MAX IC50)
Text: Human Ca2+ MAX IC50 may be measured using one of the commercially available calcium assay kits provided by Molecular Devices, Abcam, Bio-Rad, Biovision, Enzo Lifesciences, Abnova, Sigma-Aldrich, or others.

[7] = Table 3, read-out: hTRPA1 (IC50)
[8] = calculated from hTRPA1 IC50 and hPPB, read-out: Corrected IC50 (hTRPA1 values corrected for hPPB)

T1 sequence (O75762 whole entry): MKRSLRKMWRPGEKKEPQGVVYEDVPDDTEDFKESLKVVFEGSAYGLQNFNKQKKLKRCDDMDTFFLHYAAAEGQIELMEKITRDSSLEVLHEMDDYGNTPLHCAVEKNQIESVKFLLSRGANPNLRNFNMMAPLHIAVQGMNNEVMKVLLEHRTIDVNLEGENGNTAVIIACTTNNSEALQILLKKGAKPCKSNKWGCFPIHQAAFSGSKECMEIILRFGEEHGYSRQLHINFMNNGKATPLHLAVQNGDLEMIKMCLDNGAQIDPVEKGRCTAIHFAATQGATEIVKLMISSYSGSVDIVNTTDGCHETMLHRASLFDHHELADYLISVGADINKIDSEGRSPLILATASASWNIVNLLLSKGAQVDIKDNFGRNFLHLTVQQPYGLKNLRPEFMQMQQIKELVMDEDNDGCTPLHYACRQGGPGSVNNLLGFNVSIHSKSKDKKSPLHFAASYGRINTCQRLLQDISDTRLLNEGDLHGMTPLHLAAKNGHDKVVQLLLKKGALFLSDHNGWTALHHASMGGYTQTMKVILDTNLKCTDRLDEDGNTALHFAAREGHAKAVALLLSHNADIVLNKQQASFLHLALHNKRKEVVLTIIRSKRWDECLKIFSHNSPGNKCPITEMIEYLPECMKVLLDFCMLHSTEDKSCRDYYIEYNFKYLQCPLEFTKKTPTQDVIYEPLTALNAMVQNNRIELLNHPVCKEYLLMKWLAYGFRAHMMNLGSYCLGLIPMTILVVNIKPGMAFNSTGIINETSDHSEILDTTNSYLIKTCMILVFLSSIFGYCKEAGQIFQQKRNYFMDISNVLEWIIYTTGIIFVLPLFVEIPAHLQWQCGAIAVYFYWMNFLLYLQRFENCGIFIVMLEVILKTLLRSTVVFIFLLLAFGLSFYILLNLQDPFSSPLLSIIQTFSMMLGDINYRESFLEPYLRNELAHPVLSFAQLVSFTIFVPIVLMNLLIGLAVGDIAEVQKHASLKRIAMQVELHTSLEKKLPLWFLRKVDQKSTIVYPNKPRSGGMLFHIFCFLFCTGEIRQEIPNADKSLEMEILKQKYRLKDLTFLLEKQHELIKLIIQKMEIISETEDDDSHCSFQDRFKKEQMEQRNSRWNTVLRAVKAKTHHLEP

fraction unbound [1] | solubility [2] | HLM-CLhep (human liver microsome clearance) ([3]; Table 3) | IC50 (human TRPA1 [4]; [7]) | IC50 (human TRPA1 [4]; [8]) | HLM (human liver microsome stability) ([3]; Table 5) | GSH trapping (glutathione trapping) [5] | IC50 (human TRPA1 [6]) | SMILES
0.049 | 30 µM (≈ 18.3 µg/mL) | 4 mL/min/kg | 7.9 nM | 161 nM | – | – | – | C[C@H]1[C@H](F)C[C@@H](C(=O)NCc2cc(-c3cnc(C(F)(F)F)nc3)ncc2C(F)(F)F)N1S(=O)(=O)c1ccc(F)cn1 (single isomer, unassigned) [Pyridyl Sulfonamide 1]
0.075 | 4 µM (≈ 2.24 µg/mL) | – | 404 nM | 5400 nM | – | – | – | C[C@H]1[C@H](F)C[C@@H](C(=O)NCc2cc(-c3cnc(C(F)(F)F)nc3)ncc2F)N1S(=O)(=O)c1ccc(F)cn1 (single isomer, unassigned) [Pyridyl Sulfonamide 2]
0.17 | – | – | 329 nM | 1940 nM | – | – | – | C[C@H]1[C@H](F)C[C@@H](C(=O)NCc2cc(-c3cnc(C(F)(F)F)nc3)cnc2C(F)F)N1S(=O)(=O)c1ccc(F)cn1 (single isomer, unassigned) [Pyridyl Sulfonamide 3]
– | – | – | – | – | 6.6 mL/min/kg | positive | 5 nM | C[C@H]1[C@H](F)C[C@@H](C(=O)NCc2cc(-c3cnc(C(F)(F)F)nc3)ncc2C(F)(F)F)N1S(=O)(=O)c1ccc(Cl)nc1 [Compound 5]
